What all share (type): cell-based
One assay concerns the target α4β1 integrin (Homo sapiens (Human), UniProt P05556+P13612). Kind of assay: VCAM-1/α4β1 integrin binding inhibitory activity evaluation test (Jurkat cell adhesion to VCAM-1/Fc). Particulars: Jurkat cells binding to recombinant human VCAM-1/Fc. A digest of the protocol:
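Jurkat cells (5×10^5/well) added with compounds to plates coated with recombinant human VCAM-1/Fc (1 μg/mL coating), in DMEM binding buffer with 40 mM HEPES, 0.2% BSA and 4 mM MnCl2, 15-60 min at 30° C. Bound cells lysed and quantified by LDH absorbance at 490 nm; IC50 relative to compound-free wells, in duplicate.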

Assay [1] concerns the target T1, α4β7 integrin (Homo sapiens (Human), UniProt P13612+P26010). Put plainly: MAdCAM-1/α4β7 integrin binding inhibitory activity evaluation test in the presence of serum (1). To be noted: RPMI-8866 cells binding to mouse MAdCAM-1/Fc, human serum at final concentration of 50%; read-out: α4β7 with serum added, IC50. A digest of the protocol:
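Plates were coated with recombinant mouse MAdCAM-1/Fc (1 μg/mL, pH 9.6). Human RPMI-8866 B cells (α4β7-expressing) bound for 15–60 min at 30 °C in DMEM/HEPES/BSA with 4 mM MnCl2 and 50% human serum, with test substance present. Bound cells were quantified by LDH absorbance at 490 nm, run in duplicate, and IC50 was calculated relative to no-compound wells.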

The target in assay [2] is T1, α4β7 integrin. Kind of assay: MAdCAM-1/α4β7 integrin binding inhibitory activity evaluation test (RPMI-8866 cell adhesion to MAdCAM-1/Fc). To be noted: for Selectivity: IC50 in VCAM-1/α4β1 test divided by IC50 in MAdCAM-1/α4β7 test; for pIC50: RPMI-8866 cells binding to recombinant mouse MAdCAM-1/Fc, no serum. The procedure, abridged: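 Human RPMI-8866 cells (α4β7+) adhered for 15–60 min at 30 °C to plates coated with recombinant mouse MAdCAM-1/Fc, in DMEM binding buffer with 4 mM MnCl2 and test compound. Bound cells were quantified via LDH activity (A490) after lysis. IC50 is the 50% inhibition of binding relative to compound-free wells.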

pIC50: −log10 of the molar value.

T1 sequence (P13612 34-1032): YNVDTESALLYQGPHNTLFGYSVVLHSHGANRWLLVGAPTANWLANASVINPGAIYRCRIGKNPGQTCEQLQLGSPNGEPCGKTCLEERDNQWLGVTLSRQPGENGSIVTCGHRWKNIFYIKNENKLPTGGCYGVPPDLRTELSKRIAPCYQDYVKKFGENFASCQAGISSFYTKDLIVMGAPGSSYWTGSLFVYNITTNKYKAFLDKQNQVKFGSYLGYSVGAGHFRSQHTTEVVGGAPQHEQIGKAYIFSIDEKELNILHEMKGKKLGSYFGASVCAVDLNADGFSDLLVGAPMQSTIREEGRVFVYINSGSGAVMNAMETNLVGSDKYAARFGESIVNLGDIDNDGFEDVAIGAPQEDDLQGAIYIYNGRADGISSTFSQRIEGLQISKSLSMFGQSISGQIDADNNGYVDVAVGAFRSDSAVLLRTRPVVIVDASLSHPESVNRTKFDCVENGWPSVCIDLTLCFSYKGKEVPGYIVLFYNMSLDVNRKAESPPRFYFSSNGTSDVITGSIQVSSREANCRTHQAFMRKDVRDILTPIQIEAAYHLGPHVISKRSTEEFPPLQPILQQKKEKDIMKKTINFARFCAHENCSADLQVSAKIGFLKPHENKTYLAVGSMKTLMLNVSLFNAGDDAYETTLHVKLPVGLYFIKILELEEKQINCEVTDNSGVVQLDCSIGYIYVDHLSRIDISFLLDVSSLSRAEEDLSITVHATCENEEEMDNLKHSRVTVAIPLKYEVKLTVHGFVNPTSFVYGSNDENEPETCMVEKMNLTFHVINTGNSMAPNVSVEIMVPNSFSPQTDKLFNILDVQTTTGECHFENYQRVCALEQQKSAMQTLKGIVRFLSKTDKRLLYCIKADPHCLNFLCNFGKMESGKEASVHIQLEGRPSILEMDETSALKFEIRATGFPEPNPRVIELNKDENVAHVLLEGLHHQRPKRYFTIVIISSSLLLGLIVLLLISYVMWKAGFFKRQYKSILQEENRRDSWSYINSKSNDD
T1 sequence (P26010 20-798): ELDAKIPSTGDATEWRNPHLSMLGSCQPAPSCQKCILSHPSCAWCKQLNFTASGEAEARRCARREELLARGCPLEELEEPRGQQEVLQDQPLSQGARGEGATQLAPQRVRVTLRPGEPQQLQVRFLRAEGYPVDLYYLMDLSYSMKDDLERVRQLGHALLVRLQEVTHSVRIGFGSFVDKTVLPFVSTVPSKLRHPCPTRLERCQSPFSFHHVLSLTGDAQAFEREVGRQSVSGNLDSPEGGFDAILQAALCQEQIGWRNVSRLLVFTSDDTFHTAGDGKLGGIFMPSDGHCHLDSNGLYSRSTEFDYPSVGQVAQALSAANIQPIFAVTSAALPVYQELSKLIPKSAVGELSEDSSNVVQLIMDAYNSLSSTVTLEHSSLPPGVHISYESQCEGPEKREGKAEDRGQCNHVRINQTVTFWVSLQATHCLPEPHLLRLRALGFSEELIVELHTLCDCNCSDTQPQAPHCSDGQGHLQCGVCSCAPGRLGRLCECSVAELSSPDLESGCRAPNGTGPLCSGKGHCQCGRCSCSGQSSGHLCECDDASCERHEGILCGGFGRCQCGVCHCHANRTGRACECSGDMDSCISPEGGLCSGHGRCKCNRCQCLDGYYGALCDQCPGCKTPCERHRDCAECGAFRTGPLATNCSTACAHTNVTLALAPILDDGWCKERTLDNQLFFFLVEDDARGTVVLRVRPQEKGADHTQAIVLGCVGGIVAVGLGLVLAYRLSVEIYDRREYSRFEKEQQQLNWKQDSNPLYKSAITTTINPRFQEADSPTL
Chain of α4β1 integrin (P13612 34-1032): as the sequence (P13612 34-1032) above
Chain of α4β1 integrin (P05556 21-798): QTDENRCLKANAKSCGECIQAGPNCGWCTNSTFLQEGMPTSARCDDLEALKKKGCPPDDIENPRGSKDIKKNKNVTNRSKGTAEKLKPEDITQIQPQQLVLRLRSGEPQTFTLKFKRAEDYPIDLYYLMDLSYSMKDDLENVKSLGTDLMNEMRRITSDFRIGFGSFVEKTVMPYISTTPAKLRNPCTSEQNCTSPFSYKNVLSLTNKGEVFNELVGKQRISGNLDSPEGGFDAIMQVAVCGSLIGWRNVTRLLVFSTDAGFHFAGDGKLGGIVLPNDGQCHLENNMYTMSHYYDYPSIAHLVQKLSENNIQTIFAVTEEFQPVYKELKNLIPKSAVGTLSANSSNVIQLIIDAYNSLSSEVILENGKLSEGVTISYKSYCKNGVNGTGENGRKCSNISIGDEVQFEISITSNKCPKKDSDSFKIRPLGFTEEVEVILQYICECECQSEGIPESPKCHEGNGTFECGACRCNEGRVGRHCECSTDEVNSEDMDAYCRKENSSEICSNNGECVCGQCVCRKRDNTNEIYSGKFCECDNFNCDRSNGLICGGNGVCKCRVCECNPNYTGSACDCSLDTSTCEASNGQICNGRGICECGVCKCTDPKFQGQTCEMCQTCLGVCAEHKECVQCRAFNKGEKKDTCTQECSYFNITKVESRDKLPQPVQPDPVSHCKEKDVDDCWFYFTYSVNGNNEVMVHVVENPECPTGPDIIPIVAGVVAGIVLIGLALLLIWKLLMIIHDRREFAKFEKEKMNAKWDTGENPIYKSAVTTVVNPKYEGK

Consider `Cn1c(=O)n(-c2ccc(C[C@H](NC(=O)c3c(F)cc(NS(=O)(=O)c4ccc(-c5ccoc5)cc4)cc3F)C(=O)O)cc2)c(=O)c2ccncc21` [Example 66, N-[2,6-Difluoro-4-({[4-(3-furyl)phenyl]sulfonyl}amino)benzoyl]-4-(1-methyl-2,4-dioxo-1,4-dihydropyrido[3,4-d]pyrimidin-3(2H)-yl)-L-phenylalanine], for which the pIC50 – broadly, the negative decadic logarithm of the IC50, by convention in mol/L – is 6.55 on α4β1 integrin, 7.62 on α4β7 integrin [1] and 8.80 on α4β7 integrin [2]. The same molecule registered a Selectivity at α4β7 integrin [2] of 180.
`Cn1c(=O)n(-c2ccc(C[C@H](NC(=O)c3c(F)cc(NS(=O)(=O)c4ccc(-c5ccncc5)cc4)cc3F)C(=O)O)cc2)c(=O)c2ccncc21` [Example 67, N-(2,6-Difluoro-4-{[(4-pyridin-4-yl-phenyl)sulfonyl]amino}benzoyl)-4-(1-methyl-2,4-dioxo-1,4-dihydropyrido[3,4-d]pyrimidin-3(2H)-yl)-L-phenylalanine]: the negative-log IC50 (pIC50) on α4β1 integrin was 6.68; at α4β7 integrin [1] it was 7.96; at α4β7 integrin [2], 9.26. The molecule further registered a Selectivity at α4β7 integrin [2] of 380.
In the case of `Cn1c(=O)n(-c2ccc(C[C@H](NC(=O)c3c(F)cc(NS(=O)(=O)c4ccc(-c5ccnc(F)c5)cc4)cc3F)C(=O)O)cc2)c(=O)c2ccncc21` [Example 68, N-[2,6-Difluoro-4-({[4-(2-fluoropyridin-4-yl)phenyl]sulfonyl}amino)benzoyl]-4-(1-methyl-2,4-dioxo-1,4-dihydropyrido[3,4-d]pyrimidin-3(2H)-yl)-L-phenylalanine], the pIC50 at α4β1 integrin is 6.92; on α4β7 integrin [1], 8.01; at α4β7 integrin [2], 9.89. Moreover, at α4β7 integrin [2], the Selectivity is recorded as 920.
For `Cn1c(=O)n(-c2ccc(C[C@H](NC(=O)c3c(F)cc(NS(=O)(=O)c4ccc(C5=CCNCC5)cc4)cc3F)C(=O)O)cc2)c(=O)c2ccncc21` [Example 69, N-[2,6-Difluoro-4-({[4-(1,2,3,6-tetrahydropyridin-4-yl)phenyl]sulfonyl}amino)benzoyl]-4-(1-methyl-2,4-dioxo-1,4-dihydropyrido[3,4-d]pyrimidin-3(2H)-yl)-L-phenylalanine] the same measures were 7.51, 8.89, 9.68 and 150.
`Cc1cc(-c2ccc(S(=O)(=O)Nc3cc(F)c(C(=O)N[C@@H](Cc4ccc(-n5c(=O)c6ccncc6n(C)c5=O)cc4)C(=O)O)c(F)c3)cc2)cc(C)n1` [Example 70, N-[4-({[4-(2,6-Dimethylpyridin-4-yl)phenyl]sulfonyl}amino)-2,6-difluorobenzoyl]-4-(1-methyl-2,4-dioxo-1,4-dihydropyrido[3,4-d]pyrimidin-3(2H)-yl)-L-phenylalanine]: the negative logarithm of the IC50 (pIC50) at α4β1 integrin is 6.57; on α4β7 integrin [1], 7.68; at α4β7 integrin [2] it was 9.39. Besides, the Selectivity on α4β7 integrin [2] is 660.
For `Cn1c(=O)n(-c2ccc(C[C@H](NC(=O)c3c(F)cc(NS(=O)(=O)c4ccc(-n5ccnn5)cn4)cc3F)C(=O)O)cc2)c(=O)c2ccncc21` [Example 71, N-[2,6-Difluoro-4-({[5-(1H-1,2,3-triazol-1-yl)pyridin-2-yl]sulfonyl}amino)benzoyl]-4-(1-methyl-2,4-dioxo-1,4-dihydropyrido[3,4-d]pyrimidin-3(2H)-yl)-L-phenylalanine] the same measures were 7.66, 9.14, 10.01 and 220.
For the molecule `Cn1ccc(=O)n(-c2ccc(C[C@H](NC(=O)c3c(F)cc(NS(=O)(=O)c4ccc(-n5nccn5)cn4)cc3F)C(=O)O)cc2)c1=O` [Example 72, N-[2,6-Difluoro-4-({[5-(2H-1,2,3-triazol-2-yl)pyridin-2-yl]sulfonyl}amino)benzoyl]-4-(3-methyl-2,6-dioxo-3,6-dihydropyrimidin-1(2H)-yl)-L-phenylalanine], the pIC50 at α4β1 integrin was 6.40; on α4β7 integrin [1], 7.64; at α4β7 integrin [2], 8.80. Also, the Selectivity on α4β7 integrin [2] amounted to 250.
Turning to `Cn1ccc(=O)n(-c2ccc(C[C@H](NC(=O)c3c(F)cc(NS(=O)(=O)c4ccc(-n5ccnn5)cn4)cc3F)C(=O)O)cc2)c1=O` [Example 73, N-[2,6-Difluoro-4-({[5-(1H-1,2,3-triazol-1-yl)pyridin-2-yl]sulfonyl}amino)benzoyl]-4-(3-methyl-2,6-dioxo-3,6-dihydropyrimidin-1(2H)-yl)-L-phenylalanine], the negative logarithm of the IC50 (pIC50) was 6.39 on α4β1 integrin, 8.19 at α4β7 integrin [1] and 9.02 at α4β7 integrin [2]. Moreover, the Selectivity on α4β7 integrin [2] is given as 430.
As for `Cc1cc(-c2ccc(S(=O)(=O)Nc3cc(F)c(C(=O)N[C@@H](Cc4ccc(-n5c(=O)c6c(ncn6C)n(C)c5=O)cc4)C(=O)O)c(F)c3)cc2)ccn1` [Example 74, N-[2,6-Difluoro-4-({[4-(2-methylpyridin-4-yl)phenyl]sulfonyl}amino)benzoyl]-4-(3,7-dimethyl-2,6-dioxo-2,3,6,7-tetrahydro-1H-purin-1-yl)-L-phenylalanine], the pIC50 is 6.28 on α4β1 integrin, 7.96 at α4β7 integrin [1] and 9.41 on α4β7 integrin [2]. Further, on α4β7 integrin [2], the Selectivity is 1300.
In the case of `Cn1cnc2c1c(=O)n(-c1ccc(C[C@H](NC(=O)c3c(F)cc(NS(=O)(=O)c4ccc(-c5ccncc5)cc4)cc3F)C(=O)O)cc1)c(=O)n2C` [Example 75, N-(2,6-Difluoro-4-{[(4-pyridin-4-yl-phenyl)sulfonyl]amino}benzoyl)-4-(3,7-dimethyl-2,6-dioxo-2,3,6,7-tetrahydro-1H-purin-1-yl)-L-phenylalanine], the pIC50 on α4β1 integrin was 6.51; on α4β7 integrin [1], 8.38; at α4β7 integrin [2], 9.42. Also, on α4β7 integrin [2], the Selectivity is recorded as 820.
For `Cn1cnc2c1c(=O)n(-c1ccc(C[C@H](NC(=O)c3c(F)cc(NS(=O)(=O)c4ccc(-n5cccc5)cc4)cc3F)C(=O)O)cc1)c(=O)n2C` [Example 76, N-[2,6-Difluoro-4-({[4-(1H-pyrrol-1-yl)phenyl]sulfonyl}amino)benzoyl]-4-(3,7-dimethyl-2,6-dioxo-2,3,6,7-tetrahydro-1H-purin-1-yl)-L-phenylalanine] the same measures were 6.04, 7.66, 8.66 and 410.
Consider `Cn1cnc2c1c(=O)n(-c1ccc(C[C@H](NC(=O)c3c(F)cc(NS(=O)(=O)c4ccc(-c5ncccn5)cc4)cc3F)C(=O)O)cc1)c(=O)n2C` [Example 77, N-(2,6-Difluoro-4-{[(4-pyrimidin-2-yl-phenyl)sulfonyl]amino}benzoyl)-4-(3,7-dimethyl-2,6-dioxo-2,3,6,7-tetrahydro-1H-purin-1-yl)-L-phenylalanine], for which the negative logarithm of the IC50 (pIC50) on α4β1 integrin was 6.82; on α4β7 integrin [1], 8.04; at α4β7 integrin [2], 9.57. For the same molecule, the Selectivity on α4β7 integrin [2] worked out at 560.
Turning to `COc1ccc2c(c1)c(=O)n(-c1ccc(C[C@H](NC(=O)c3c(F)cc(NS(=O)(=O)c4ccc(C(=O)NC5CC5)cc4)cc3F)C(=O)O)cc1)c(=O)n2C` [Example 78, N-{4-[({4-[(Cyclopropylamino)carbonyl]phenyl}sulfonyl)amino]-2,6-difluorobenzoyl}-4-(6-methoxy-1-methyl-2,4-dioxo-1,4-dihydroquinazolin-3(2H)-yl)-L-phenylalanine], the pIC50 on α4β1 integrin was 6.43; at α4β7 integrin [1], 7.72; at α4β7 integrin [2], 9.10. This molecule also came in with a Selectivity on α4β7 integrin [2] of 470.

Values taken from patent US9533985B2, “Sulfonamide derivative and medicinal use thereof” (EA Pharma Co., Ltd., priority 2012, dated 2017).
